Test [1] has as its system NKT cell hybridomas. Briefly: IL-2 production by NKT cell hybridomas cultured with BMDCs (ELISA). The test is classed as cell-based, mouse. The protocol:
FIGS. 4A-4C illustrate that α-GalCerBf binds CD1d and activates murine NKT cells in vitro. FIG. 4A: NKT cell hybridomas (see Example 4) were stained with anti-CD3 antibodies, and empty mCD1d tetramers or CD1d tetramers were loaded with α-GalCerBf or KRN7000. Flow cytometry plots representative of three independent experiments are shown. FIG. 4B: Hybridomas were cultured with BMDCs (bone marrow-derived dendritic cells) pre-pulsed with LPS or LPS+α-GalCerBf in the presence of control Ig or anti-CD1d blocking antibodies. IL-2 secretion was measured in supernatants 16 hr later. Data are representative of three independent experiments. FIG. 4C: Liver mononuclear cells were cultured with splenocytes plus increasing amounts of α-GalCerBf in the presence or absence of anti-CD1d blocking antibodies. IFN-γ secretion was measured in supernatants on day 5. Data are representative of three independent experiments.
BMDCs and NKT hybridomas were cultured at a 3:1 hybridoma:BMDC ratio and the indicated doses of KRN7000 or α-GalCerBf in the presence of 1 μg/ml LPS. Supernatants were harvested after 24 hrs, and IL-2 production was measured by ELISA. […]
NKT hybridomas were stimulated in dose titration experiments. […] Supernatants were harvested after 24 hr, and IL-2 production was measured by ELISA. […] Supernatants were harvested after 16-18 hr and IL-2 production was measured by ELISA.
A general note: ELISA stands for enzyme-linked immunosorbent assay.

The test system of test [2] is Peripheral blood mononuclear cells (PBMCs), CD3+Vα24+ NKT cells. Briefly: In vitro expansion of CD3+Vα24+ NKT cells from human PBMCs. Type of test: cell-based. As to conditions: 13 days; 0.1 μg/ml KRN7000, 1 μg/ml α-GalCerBf, 1 μg/ml ceramideBf. On the procedure: FIGS. 6A and 6B illustrate that α-GalCerBf binds human CD1d and activates human NKT cells in vitro. FIG. 6A: PBMCs were cultured for 13 days with 0.1 μg/mlKRN7000, 1 μg/ml α-GalCerBf, or 1 μg/ml ceramideBf. Dot plots show CD3^+Vα24^+NKT cells pre- and post-expansion. The data shown are representative of at least two individual experiments performed with six individual donors. FIG. 6B: Human NKT cells were purified after two rounds of expansion with 1 μg/ml α-GalCerBf and restimulated with 10 μg/ml α-GalCerBf in the presence or absence of control Ig or anti-Cd1d blocking antibodies. IFN-γ secretion was measured in supernatants 40-48 hours later. Data are representative of two independent experiments.
The capability of α-GalCerBf to stimulate freshly isolated NKT cells was determined. A first experiment was performed to determine whether Vα24^+ cells could be expanded in vitro with α-GalCerBf as previously described for KRN7000 (see, e.g., Rogers et al., J. Immunol. Meth. 285:197-214 (2004)). Peripheral blood mononuclear cells (PBMCs) were cultured with 0.1 μg/ml KRN7000, 1 μg/ml α-GalCerBf, or 1 μg/ml ceramideBf for 13 days. The presence of CD3 Vα24^+ cells was then assessed by flow cytometry. At least two individual experiments performed with six individual donors. […] IFN-γ secretion was measured in supernatants 40-48 hours later.

For test [3], the system named is cyclophosphamide (CY) induced diabetes. As to conditions: NOD mouse model; Sharif et al.; cited from earlier work.

`CCCCCCCCCCCCCCCCCCCCCCCCCC(=O)N[C@@H](CO[C@H]1O[C@H](CO)[C@H](O)[C@H](O)[C@H]1O)[C@H](O)[C@H](O)CCCCCCCCCCCCCC` [KRN7000]: the “Sensitivity of hybridoma to KRN7000 relative to α-GalCerBf (IL-2)” value came out at 30 fold in test [1] (hybridoma 1.2) and 80 fold in test [1] (hybridoma 1.4). The “Expansion of a population of CD3+Vα24+ cells” value in test [2] is “showed an expansion”. Also, the “Effect on cyclophosphamide (CY) induced diabetes” value in test [3] is “prevents”.
